Measurements taken from US5747495A, “Method for treating hypertension using pyrazolopyrimidine derivatives” (Maeda; Hiroshi, priority 1995, dated 1998).
Values joined by “and” are separate entries in the source; they are usually repeats but may differ in a detail not shown here. Equal values may be shown once. Blank lines part the entries; values can stand above or below the molecule they belong to.

Experiments:
[1] = tested on: xanthine oxidase; conditions: J. Biol. Chem., 226, 993-1000, 1957; cited from earlier work
[2] = tested on: tryptophan pyrolase; conditions: Life Sci., 8, 843-851, 1969; cited from earlier work
[3] = tested on: xanthine dehydrogenase; conditions: Yokohama Med. Bull., 29, 53-58, 1978; cited from earlier work
[4] = tested on: Spontaneously Hypertensive Rats; experiment: Mean arterial blood pressure of spontaneously hypertensive rats after intravenous injection; assay type: in vivo, rat; conditions: 50 mg/kg, average of 8 rats
Method: Effect of Intravenous Injection of AHPP on the Blood Pressure of Spontaneously Hypertensive Rats
Eighteen weeks old spontaneously hypertensive 8 male rats weighing 300-400 g were intravenously infused with 50 mg/kg of AHPP in a solution dissolved in 1 ml of 0.1 M NaOH for 5 minutes (8 rats), and mean arterial blood pressure was measured under anesthesia. Eight control rats were received only 0.1 M NaOH by intravenous infusion.
Dose of AHPP. 50 mg/kg in rats. 0.33 mmol/ml, 1.0 ml/5 min. See text for details. Average value of 8 measurements ±SD.

[5] = tested on: Spontaneously Hypertensive Rats; experiment: Systolic blood pressure of spontaneously hypertensive rats after oral administration; assay type: in vivo, rat; conditions: 100 mg/kg oral, 4 hours after treatment, male spontaneously hypertensive rats
Method: Effects of Oral Administration of AHpp on the Blood Pressure of Spontaneously Hypertensive Rats
Four male spontaneously hypertensive rats with a body weight of […] and 4 male rats with a body weight of 200-300 g were orally given with 100 mg/kg of AHPP and a systolic blood pressure in tail artery was examined 4 hours after the treatment. Systolic blood pressure of the treated group was reduced to 70% the value of before

[6] = biological target: T1, cow milk xanthine oxidase (Bos taurus, UniProt P80457); experiment: Inhibition of uric acid production by xanthine oxidase in vitro; assay type: biochemical
T1 construct: in the presence of cow milk xanthine oxidase; from tissue; host or cells: cow milk
T1 sequence (P80457 whole entry): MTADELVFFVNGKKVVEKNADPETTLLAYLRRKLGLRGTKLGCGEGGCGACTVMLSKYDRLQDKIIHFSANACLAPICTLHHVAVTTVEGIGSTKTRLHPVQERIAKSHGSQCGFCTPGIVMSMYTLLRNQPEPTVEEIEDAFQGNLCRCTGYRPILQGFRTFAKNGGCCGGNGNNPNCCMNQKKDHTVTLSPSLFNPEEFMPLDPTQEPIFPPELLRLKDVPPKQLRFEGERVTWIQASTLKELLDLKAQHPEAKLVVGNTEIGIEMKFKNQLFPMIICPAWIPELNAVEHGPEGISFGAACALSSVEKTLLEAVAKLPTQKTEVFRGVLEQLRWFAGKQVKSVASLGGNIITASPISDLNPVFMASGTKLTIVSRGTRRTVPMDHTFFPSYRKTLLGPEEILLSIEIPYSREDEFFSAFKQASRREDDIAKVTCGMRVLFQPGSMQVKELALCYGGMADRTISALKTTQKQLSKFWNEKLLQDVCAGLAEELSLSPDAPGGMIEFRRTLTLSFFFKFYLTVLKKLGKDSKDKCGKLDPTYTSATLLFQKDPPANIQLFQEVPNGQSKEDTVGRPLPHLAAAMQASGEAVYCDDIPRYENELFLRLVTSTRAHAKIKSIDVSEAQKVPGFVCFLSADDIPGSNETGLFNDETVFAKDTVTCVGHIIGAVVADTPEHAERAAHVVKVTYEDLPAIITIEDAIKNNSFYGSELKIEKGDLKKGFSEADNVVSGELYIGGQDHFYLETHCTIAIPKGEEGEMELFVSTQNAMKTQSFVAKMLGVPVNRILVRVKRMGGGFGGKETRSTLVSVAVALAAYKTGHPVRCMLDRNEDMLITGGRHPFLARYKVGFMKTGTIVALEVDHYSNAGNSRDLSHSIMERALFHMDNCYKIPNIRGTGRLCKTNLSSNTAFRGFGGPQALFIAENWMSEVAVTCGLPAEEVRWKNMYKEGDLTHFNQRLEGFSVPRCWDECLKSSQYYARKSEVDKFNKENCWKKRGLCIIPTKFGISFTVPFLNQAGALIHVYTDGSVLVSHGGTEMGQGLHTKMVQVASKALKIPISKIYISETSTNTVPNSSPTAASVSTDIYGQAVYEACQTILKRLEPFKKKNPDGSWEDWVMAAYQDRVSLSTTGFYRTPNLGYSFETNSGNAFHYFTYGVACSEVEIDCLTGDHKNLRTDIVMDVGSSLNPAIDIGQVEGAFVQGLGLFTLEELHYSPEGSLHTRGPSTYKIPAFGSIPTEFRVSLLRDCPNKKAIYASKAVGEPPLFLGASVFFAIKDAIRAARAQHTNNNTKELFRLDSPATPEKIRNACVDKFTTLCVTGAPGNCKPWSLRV
Method: Inhibitory Effect of AHPP Against Uric Acid Production by Xanthine Oxidase In Vitro
Rate of uric acid production was determined by measuring the increase of an optical absorbance at 290 nm in 50 mM phosphate buffer solution (pH 7.5) containing 2.19-21.9 μmole/L of xanthine and 0-0.44 μmole/L AHPP in the presence of cow milk xanthine oxidase in the final concentration of 3.33 mU/ml. […] The inhibitory coefficient (Ki) of AHPP for xanthine oxidase was determined to be 0.2 μM, by an analysis of its reaction velocity kinetics.

[7] = biological target: xanthine oxidase derived from cow milk (Bos taurus, UniProt P80457); experiment: Inhibition of superoxide production by xanthine oxidase in vitro (lucigenin chemiluminescence); assay type: biochemical; conditions: for Integral value of intensity of chemiluminescence/10 min: average of two measurements, without AHPP 5.2 × 10^6 count
Sequence of xanthine oxidase derived from cow milk (P80457 whole entry): as above
Method: Inhibitory Effect of AHPP against Superoxide Production by Xanthine Oxidase In Vitro
Production of superoxide radicals was determined by measuring a chemiluminescence observed in 100 mM phosphate buffer (pH 7.4) containing 10 μmole/L lucigenin and […] xanthine in the presence of 20 U/ml of xanthine oxidase derived from cow milk. Further, the inhibition of superoxide generation by the AHPP was evaluated by addition of 0-100 μmole/L of AHPP into the reaction mixture.

[8] = tested on: Rabbit Aortic Ring; experiment: Relaxation of phenylepherine-contracted rabbit aortic ring by acetylcholine in the presence of AHPP; design: species or system New Zealand White rabbit; conditions: for Amount of acethylcholine required to inhibit 50% relaxation of aorta ring: 0.11 without AHPP
Method: Synergistic Vascular Relaxation Effect to Acetylcholine of Rabbit Aortic Ring by AHPP Aortic ring with a diameter of 5 mm was prepared from chest aorta of New Zealand White female rabbits with a body weight of 2.5-3.0 kg. The rings were surgically prepared and hanged into the organ bath containing 20 ml of Krebs solution, which was kept at 37° C. and supplemented with 95% O2 and 5% CO2, for determination of the tension. Aortic ring relaxation by […] acetylcholine was measured in the prescence of 0, 100, and 300 μmole/L of AHPP, after aortic ring contraction was induced by 0.15 μmole/L phenylepherine.

Ki ([6]; pH 7.5, 2.19-21.9 μmole/L xanthine, 0-0.44 μmole/L AHPP, 3.33 mU/ml enzyme, read-out: inhibitory coefficient (Ki) for xanthine oxidase): 200 nM
type of inhibition of xanthine oxidase ([6]; reaction velocity kinetics): competitive inhibition
Integral value of intensity of chemiluminescence/10 min ([7]; 1 μmole/L AHPP): 4.4 × 10^6 count
Integral value of intensity of chemiluminescence/10 min ([7]; 10 μmole/L AHPP): 1.6 × 10^6 count
SMILES: Nc1nc(O)nc2[nH]ncc12 [AHPP, 4-amino-6-hydroxypyrazolo [3,4-d]pyrimidine]
inhibition of xanthine oxidase [1]: potent inhibitor
inhibition of tryptophan pyrolase [2]: potent inhibitor
inhibition of xanthine dehydrogenase [3]: potent inhibitor
Mean arterial blood pressure (100% = preinjection value) ([4]; 5 min after iv, control 105.5 ± 7.5): 98.3 ± 2.7%
Mean arterial blood pressure (100% = preinjection value) ([4]; 10 min after iv, control 107.3 ± 6.9): 92.2 ± 6.1%
Mean arterial blood pressure (100% = preinjection value) ([4]; 15 min after iv, control 106.1 ± 6.3): 91.1 ± 5.6%
Mean arterial blood pressure (100% = preinjection value) ([4]; 20 min after iv, control 105.0 ± 6.6): 86.9 ± 8.0%
Mean arterial blood pressure (100% = preinjection value) ([4]; 30 min after iv, control 103.3 ± 4.2): 81.7 ± 5.0%
Mean arterial blood pressure (100% = preinjection value) ([4]; 40 min after iv, control 100.5 ± 3.1): 77.7 ± 5.2%
Mean arterial blood pressure (100% = preinjection value) ([4]; 50 min after iv, control 98.9 ± 3.3): 76.1 ± 7.2%
Mean arterial blood pressure (100% = preinjection value) ([4]; 60 min after iv, control 97.5 ± 4.1): 73.5 ± 7.5%
Mean arterial blood pressure (100% = preinjection value) ([4]; 70 min after iv, control 96.7 ± 5.0): 72.4 ± 6.6% and 72%
Systolic blood pressure in tail artery, % of value before [5]: 70%
inhibition of uric acid production by xanthine oxidase ([6]; 0-0.44 μmole/L AHPP, pH 7.5): inhibited by AHPP in a dose-dependent manner
inhibition of superoxide production by xanthine oxidase ([7]; 0-100 μmole/L AHPP, pH 7.4): inhibit superoxide production by xanthine oxidase in a dose-dependent manner
dose of phenylepherine required for 50% relaxation of phenylepherine-induced aortic ring contraction ([8]; 0, 100, and 300 μmole/L AHPP): reduced depending on the concentration of AHPP
Amount of acethylcholine required to inhibit 50% relaxation of aorta ring ([8]; 100 μmole/L AHPP, contraction by 0.15 μmole/L phenylepherine, average of four measurements): 0.075
Amount of acethylcholine required to inhibit 50% relaxation of aorta ring ([8]; 300 μmole/L AHPP, contraction by 0.15 μmole/L phenylepherine, average of four measurements): 0.055

SMILES: CC(=O)OCC[N+](C)(C)C [acetylcholine, reference compound]
EC50 ([8]; Oryctolagus cuniculus, 0 μmole/L AHPP, contraction by 0.15 μmole/L phenylepherine, average of four measurements, read-out: Amount of acethylcholine required to inhibit 50% relaxation of aorta ring): 110 nM
